Reference: the NIST ThermoML archive (doi:10.1016/j.jct.2017.05.028)

Assay: wn = mass fraction of the nth substance listed
Details: 101 kPa, Liquid, digital holographic interferometry

CCCCCO [pentan-1-ol] + CCCCCCC
binary diffusion coefficient [m2/s]
Details | w1 = 0.05 | w1 = 0.15 | w1 = 0.25 | w1 = 0.35 | w1 = 0.45 | w1 = 0.55 | w1 = 0.65 | w1 = 0.75 | w1 = 0.85 | w1 = 0.95
288.15 K | 1.65e-09 | 1.19e-09 | 8.88e-10 | 7.12e-10 | 5.95e-10 | 5.43e-10 | 5.49e-10 | 5.77e-10 | 6.09e-10 | 6.5e-10
298.15 K | 1.88e-09 | 1.43e-09 | 1.13e-09 | 9.36e-10 | 8.38e-10 | 7.8e-10 | 7.86e-10 | 8.09e-10 | 8.4e-10 | 8.76e-10
308.15 K | 2.11e-09 | 1.69e-09 | 1.38e-09 | 1.18e-09 | 1.07e-09 | 1.02e-09 | 9.99e-10 | 1.04e-09 | 1.07e-09 | 1.12e-09
318.15 K | 2.42e-09 | 1.96e-09 | 1.64e-09 | 1.42e-09 | 1.33e-09 | 1.29e-09 | 1.28e-09 | 1.31e-09 | 1.36e-09 | 1.38e-09

CCCCO [butan-1-ol] + CCCCCCC
binary diffusion coefficient [m2/s]
Details | w1 = 0.05 | w1 = 0.15 | w1 = 0.25 | w1 = 0.35 | w1 = 0.45 | w1 = 0.55 | w1 = 0.65 | w1 = 0.75 | w1 = 0.85 | w1 = 0.95
288.15 K | 1.86e-09 | 1.39e-09 | 1.04e-09 | 8.03e-10 | 6.87e-10 | 6.25e-10 | 6.28e-10 | 6.75e-10 | 7.03e-10 | 7.54e-10
298.15 K | 2.09e-09 | 1.63e-09 | 1.26e-09 | 1.06e-09 | 9.24e-10 | 8.84e-10 | 8.71e-10 | 9.06e-10 | 9.54e-10 | 1.01e-09
308.15 K | 2.4e-09 | 1.92e-09 | 1.57e-09 | 1.33e-09 | 1.19e-09 | 1.13e-09 | 1.11e-09 | 1.13e-09 | 1.2e-09 | 1.26e-09
318.15 K | 2.73e-09 | 2.24e-09 | 1.87e-09 | 1.6e-09 | 1.49e-09 | 1.42e-09 | 1.4e-09 | 1.44e-09 | 1.48e-09 | 1.54e-09
